The values below are quoted from earlier work in patent US20100330150A1, “Orally Disintegrating Tablet Compositions Comprising Combinations of High and Low-Dose Drugs” (priority 2009, published 2010).

The subject of one series is serum protein. Conditions: after normal therapeutic dosages.

SMILES strings stand for the structures.

Regarding `CC(=O)Nc1ccc(O)cc1` [acetaminophen], the Plasma half-life (normal, healthy patients) was 1 to 2.5 h. Under “oral administration”, the “Time after which only traces of the drug are detectable” value is recorded as “about 8 hours” and the “Time at which peak plasma concentrations are attained” value is 30 to 60 min. In addition, the “Binding to serum protein” value in the series with serum protein is “about 25%”.
